The source made the active and inactive calls. Unless noted, no cut-off for these calls is given here.
Tested on: SH-SY5Y
Assay: Antiproliferative activity against human SH-SY5Y cells at 1 uM after 24 to 72 hrs by WST1 assay
Assay type: cell-based
Details: not given
In the case of C[C@H](CCC(=O)N/N=C/c1ccc2ccccc2n1)[C@H]1CC[C@H]2[C@@H]3[C@H](O)C[C@@H]4C[C@H](O)CC[C@]4(C)[C@H]3C[C@H](O)[C@]12C, the Activity is reported as “Non-Toxic”.
With CCN1/C(=C/c2c(NN=C(c3ccccn3)c3ccccn3)c(=O)c2=O)Sc2ccccc21 the Activity was “Non-Toxic”.
For C[C@H](CCC(=O)NN=C(c1ccccn1)c1ccccn1)[C@H]1CC[C@H]2[C@@H]3[C@H](O)C[C@@H]4C[C@H](O)CC[C@]4(C)[C@H]3C[C@H](O)[C@]12C, the Activity was “Non-Toxic”.

Tested on: SH-SY5Y
Assay: Inhibition of Zn2+-mediated amyloid beta (1 to 42 residues) production in human SH-SY5Y cells expressing APPswe mutant at 1 uM after 72 hrs by ELISA based spectrophotometric analysis
Assay type: cell-based
Details: not given
For CCN1/C(=C/c2c(NN=C(c3ccccn3)c3ccccn3)c(=O)c2=O)Sc2ccccc21, the inhibition was “Active”.

Tested on: SH-SY5Y
Assay: Inhibition of Zn2+-mediated ROS generation in human SH-SY5Y cells expressing APPswe mutant at 1 uM after 72 hrs by DCF-DA dye-based fluorescence spectroscopic analysis
Assay type: cell-based
Details: not given
With CCN1/C(=C/c2c(NN=C(c3ccccn3)c3ccccn3)c(=O)c2=O)Sc2ccccc21 the inhibition was “Active”.

Tested on: SH-SY5Y
Assay: Effect on morphological changes in human SH-SY5Y cells expressing APPswe mutant assessed as decrease in adherent cell number at 1 uM after 72 hrs
Assay type: ADME, cell-based
Details: not given
For CCN1/C(=C/c2c(NN=C(c3ccccn3)c3ccccn3)c(=O)c2=O)Sc2ccccc21, the Activity was “Toxic”.

Tested on: SH-SY5Y
Assay: Effect on morphological changes in human SH-SY5Y cells expressing APPswe mutant assessed as alteration of cell shape at 1 uM after 72 hrs
Assay type: ADME, cell-based
Details: not given
In the case of CCN1/C(=C/c2c(NN=C(c3ccccn3)c3ccccn3)c(=O)c2=O)Sc2ccccc21, the Activity is reported as “Toxic”.

Tested on: not listed separately
Assay: Effective permeability of the compound at pH 7.4 at 200 uM after 4 hrs by PAMPA-BBB assay
Assay type: ADME
Details: read-out: Peff
For CC(C)NCC(O)COc1cccc2ccccc12 (stereo unspecified) [PROPRANOLOL], the Papp at 4 h, 200 µM was 103 nm/s.

Molecular target: Acetylcholinesterase (Homo sapiens) (UniProt P22303)
Sequence (P22303 whole entry): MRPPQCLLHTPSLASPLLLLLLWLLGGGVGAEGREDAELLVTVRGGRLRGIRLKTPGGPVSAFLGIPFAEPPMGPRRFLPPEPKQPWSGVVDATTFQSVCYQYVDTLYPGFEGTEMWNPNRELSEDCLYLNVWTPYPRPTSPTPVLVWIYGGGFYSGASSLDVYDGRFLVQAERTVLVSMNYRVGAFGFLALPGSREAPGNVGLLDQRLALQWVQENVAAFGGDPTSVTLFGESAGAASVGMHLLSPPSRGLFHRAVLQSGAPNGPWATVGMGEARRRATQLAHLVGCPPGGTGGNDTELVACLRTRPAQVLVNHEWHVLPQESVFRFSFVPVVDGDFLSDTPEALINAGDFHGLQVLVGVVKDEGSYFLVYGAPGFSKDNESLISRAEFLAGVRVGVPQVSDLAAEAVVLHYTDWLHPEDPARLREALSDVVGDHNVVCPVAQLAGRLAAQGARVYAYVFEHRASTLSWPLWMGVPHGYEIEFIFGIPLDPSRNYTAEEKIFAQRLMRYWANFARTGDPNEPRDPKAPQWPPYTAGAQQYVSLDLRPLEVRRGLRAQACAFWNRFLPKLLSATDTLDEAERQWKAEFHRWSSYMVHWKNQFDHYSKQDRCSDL
Assay: Inhibition of acetylcholinesterase (unknown origin) at 1 uM using acetylthiocholine chloride as substrate measured for 5 to 40 mins
Details: not given
With C[C@H](CCC(=O)N/N=C/c1ccc2ccccc2n1)[C@H]1CC[C@H]2[C@@H]3[C@H](O)C[C@@H]4C[C@H](O)CC[C@]4(C)[C@H]3C[C@H](O)[C@]12C the inhibition was “inactive”.
With CCN1/C(=C/c2c(NN=C(c3ccccn3)c3ccccn3)c(=O)c2=O)Sc2ccccc21 the inhibition was “inactive”.
With C[C@H](CCC(=O)NN=C(c1ccccn1)c1ccccn1)[C@H]1CC[C@H]2[C@@H]3[C@H](O)C[C@@H]4C[C@H](O)CC[C@]4(C)[C@H]3C[C@H](O)[C@]12C the inhibition was “inactive”.

Tested on: SH-SY5Y
Assay: Neuroprotective activity against amyloid beta (1 to 42 residues) induced cell death in human SH-SY5Y cells expressing APPswe mutant at 1 uM after 48 hrs by WST1 assay
Assay type: functional, cell-based
Details: not given
In the case of C[C@H](CCC(=O)N/N=C/c1ccc2ccccc2n1)[C@H]1CC[C@H]2[C@@H]3[C@H](O)C[C@@H]4C[C@H](O)CC[C@]4(C)[C@H]3C[C@H](O)[C@]12C, the Activity is reported as “Active”.
For CCN1/C(=C/c2c(NN=C(c3ccccn3)c3ccccn3)c(=O)c2=O)Sc2ccccc21, the Activity was “inactive”.
In the case of C[C@H](CCC(=O)NN=C(c1ccccn1)c1ccccn1)[C@H]1CC[C@H]2[C@@H]3[C@H](O)C[C@@H]4C[C@H](O)CC[C@]4(C)[C@H]3C[C@H](O)[C@]12C, the Activity is reported as “Active”.

Tested on: not listed separately
Assay: Metal chelating activity assessed as compound-Zn2+ complex formation by UV-vis spectrophotometric analysis
Details: not given
In the case of C[C@H](CCC(=O)N/N=C/c1ccc2ccccc2n1)[C@H]1CC[C@H]2[C@@H]3[C@H](O)C[C@@H]4C[C@H](O)CC[C@]4(C)[C@H]3C[C@H](O)[C@]12C, the Activity is reported as “inactive”.
In the case of CCN1/C(=C/c2c(NN=C(c3ccccn3)c3ccccn3)c(=O)c2=O)Sc2ccccc21, the Activity is reported as “Active”.
With C[C@H](CCC(=O)NN=C(c1ccccn1)c1ccccn1)[C@H]1CC[C@H]2[C@@H]3[C@H](O)C[C@@H]4C[C@H](O)CC[C@]4(C)[C@H]3C[C@H](O)[C@]12C the Activity was “inactive”.

Tested on: not listed separately
Assay: Metal chelating activity assessed as compound-Fe3+ complex formation by UV-vis spectrophotometric analysis
Details: not given
For C[C@H](CCC(=O)N/N=C/c1ccc2ccccc2n1)[C@H]1CC[C@H]2[C@@H]3[C@H](O)C[C@@H]4C[C@H](O)CC[C@]4(C)[C@H]3C[C@H](O)[C@]12C, the Activity was “Active”.
With CCN1/C(=C/c2c(NN=C(c3ccccn3)c3ccccn3)c(=O)c2=O)Sc2ccccc21 the Activity was “Active”.
For C[C@H](CCC(=O)NN=C(c1ccccn1)c1ccccn1)[C@H]1CC[C@H]2[C@@H]3[C@H](O)C[C@@H]4C[C@H](O)CC[C@]4(C)[C@H]3C[C@H](O)[C@]12C, the Activity was “Active”.

Tested on: not listed separately
Assay: Metal chelating activity assessed as compound-Cu2+ complex formation by UV-vis spectrophotometric analysis
Details: not given
For C[C@H](CCC(=O)N/N=C/c1ccc2ccccc2n1)[C@H]1CC[C@H]2[C@@H]3[C@H](O)C[C@@H]4C[C@H](O)CC[C@]4(C)[C@H]3C[C@H](O)[C@]12C, the Activity was “Active”.
In the case of CCN1/C(=C/c2c(NN=C(c3ccccn3)c3ccccn3)c(=O)c2=O)Sc2ccccc21, the Activity is reported as “Active”.
With C[C@H](CCC(=O)NN=C(c1ccccn1)c1ccccn1)[C@H]1CC[C@H]2[C@@H]3[C@H](O)C[C@@H]4C[C@H](O)CC[C@]4(C)[C@H]3C[C@H](O)[C@]12C the Activity was “Active”.

Tested on: SH-SY5Y
Assay: Inhibition of Cu2+-mediated amyloid beta (1 to 42 residues) production in human SH-SY5Y cells expressing APPswe mutant at 1 uM after 72 hrs by ELISA based spectrophotometric analysis
Assay type: cell-based
Details: not given
In the case of C[C@H](CCC(=O)N/N=C/c1ccc2ccccc2n1)[C@H]1CC[C@H]2[C@@H]3[C@H](O)C[C@@H]4C[C@H](O)CC[C@]4(C)[C@H]3C[C@H](O)[C@]12C, the inhibition is reported as “inactive”.
For CCN1/C(=C/c2c(NN=C(c3ccccn3)c3ccccn3)c(=O)c2=O)Sc2ccccc21, the inhibition was “Active”.
In the case of C[C@H](CCC(=O)NN=C(c1ccccn1)c1ccccn1)[C@H]1CC[C@H]2[C@@H]3[C@H](O)C[C@@H]4C[C@H](O)CC[C@]4(C)[C@H]3C[C@H](O)[C@]12C, the inhibition is reported as “Active”.

Tested on: SH-SY5Y
Assay: Inhibition of Fe3+-mediated amyloid beta (1 to 42 residues) production in human SH-SY5Y cells expressing APPswe mutant at 1 uM after 72 hrs by ELISA based spectrophotometric analysis
Assay type: cell-based
Details: not given
For C[C@H](CCC(=O)N/N=C/c1ccc2ccccc2n1)[C@H]1CC[C@H]2[C@@H]3[C@H](O)C[C@@H]4C[C@H](O)CC[C@]4(C)[C@H]3C[C@H](O)[C@]12C, the inhibition was “inactive”.
With CCN1/C(=C/c2c(NN=C(c3ccccn3)c3ccccn3)c(=O)c2=O)Sc2ccccc21 the inhibition was “Active”.
With C[C@H](CCC(=O)NN=C(c1ccccn1)c1ccccn1)[C@H]1CC[C@H]2[C@@H]3[C@H](O)C[C@@H]4C[C@H](O)CC[C@]4(C)[C@H]3C[C@H](O)[C@]12C the inhibition was “Active”.

Tested on: SH-SY5Y
Assay: Inhibition of Cu2+-mediated ROS generation in human SH-SY5Y cells expressing APPswe mutant at 1 uM after 72 hrs by DCF-DA dye-based fluorescence spectroscopic analysis
Assay type: cell-based
Details: not given
With C[C@H](CCC(=O)N/N=C/c1ccc2ccccc2n1)[C@H]1CC[C@H]2[C@@H]3[C@H](O)C[C@@H]4C[C@H](O)CC[C@]4(C)[C@H]3C[C@H](O)[C@]12C the inhibition was “Active”.
For CCN1/C(=C/c2c(NN=C(c3ccccn3)c3ccccn3)c(=O)c2=O)Sc2ccccc21, the inhibition was “Active”.

Tested on: SH-SY5Y
Assay: Inhibition of Fe3+-mediated ROS generation in human SH-SY5Y cells expressing APPswe mutant at 1 uM after 72 hrs by DCF-DA dye-based fluorescence spectroscopic analysis
Assay type: cell-based
Details: not given
In the case of C[C@H](CCC(=O)N/N=C/c1ccc2ccccc2n1)[C@H]1CC[C@H]2[C@@H]3[C@H](O)C[C@@H]4C[C@H](O)CC[C@]4(C)[C@H]3C[C@H](O)[C@]12C, the inhibition is reported as “Active”.
For CCN1/C(=C/c2c(NN=C(c3ccccn3)c3ccccn3)c(=O)c2=O)Sc2ccccc21, the inhibition was “Active”.

Tested on: SH-SY5Y
Assay: Inhibition of Cu2+-induced caspase-3 activity in human SH-SY5Y cells expressing APPswe mutant at 1 uM after 72 hrs by AcDEVD substrate-based spectrophotometric analysis
Assay type: cell-based
Details: not given
With C[C@H](CCC(=O)N/N=C/c1ccc2ccccc2n1)[C@H]1CC[C@H]2[C@@H]3[C@H](O)C[C@@H]4C[C@H](O)CC[C@]4(C)[C@H]3C[C@H](O)[C@]12C the inhibition was “Active”.
For C[C@H](CCC(=O)NN=C(c1ccccn1)c1ccccn1)[C@H]1CC[C@H]2[C@@H]3[C@H](O)C[C@@H]4C[C@H](O)CC[C@]4(C)[C@H]3C[C@H](O)[C@]12C, the inhibition was “Active”.

Tested on: SH-SY5Y
Assay: Inhibition of Fe3+-induced caspase-3 activity in human SH-SY5Y cells expressing APPswe mutant at 1 uM after 72 hrs by AcDEVD substrate-based spectrophotometric analysis
Assay type: cell-based
Details: not given
For C[C@H](CCC(=O)N/N=C/c1ccc2ccccc2n1)[C@H]1CC[C@H]2[C@@H]3[C@H](O)C[C@@H]4C[C@H](O)CC[C@]4(C)[C@H]3C[C@H](O)[C@]12C, the inhibition was “Active”.
With C[C@H](CCC(=O)NN=C(c1ccccn1)c1ccccn1)[C@H]1CC[C@H]2[C@@H]3[C@H](O)C[C@@H]4C[C@H](O)CC[C@]4(C)[C@H]3C[C@H](O)[C@]12C the inhibition was “Active”.

Tested on: SH-SY5Y
Assay: Inhibition of Cu2+-induced toxicity in human SH-SY5Y cells expressing APPswe mutant assessed as increase in cell viability at 1 uM after 72 hrs by WST1 assay
Assay type: cell-based
Details: not given
In the case of C[C@H](CCC(=O)N/N=C/c1ccc2ccccc2n1)[C@H]1CC[C@H]2[C@@H]3[C@H](O)C[C@@H]4C[C@H](O)CC[C@]4(C)[C@H]3C[C@H](O)[C@]12C, the inhibition is reported as “Active”.
With C[C@H](CCC(=O)NN=C(c1ccccn1)c1ccccn1)[C@H]1CC[C@H]2[C@@H]3[C@H](O)C[C@@H]4C[C@H](O)CC[C@]4(C)[C@H]3C[C@H](O)[C@]12C the inhibition was “Active”.

Tested on: SH-SY5Y
Assay: Inhibition of Fe3+-induced toxicity in human SH-SY5Y cells expressing APPswe mutant assessed as increase in cell viability at 1 uM after 72 hrs by WST1 assay
Assay type: cell-based
Details: not given
For C[C@H](CCC(=O)N/N=C/c1ccc2ccccc2n1)[C@H]1CC[C@H]2[C@@H]3[C@H](O)C[C@@H]4C[C@H](O)CC[C@]4(C)[C@H]3C[C@H](O)[C@]12C, the inhibition was “Active”.
In the case of C[C@H](CCC(=O)NN=C(c1ccccn1)c1ccccn1)[C@H]1CC[C@H]2[C@@H]3[C@H](O)C[C@@H]4C[C@H](O)CC[C@]4(C)[C@H]3C[C@H](O)[C@]12C, the inhibition is reported as “Active”.

— ChEMBL document CHEMBL4196074, “Metallomics for Alzheimer's disease treatment: Use of new generation of chelators combining metal-cation binding and transport properties” (Eur J Med Chem, 2018)
